Literature values, collected in patent US20260335281A1, “PHARMACEUTICAL COMPOSITION COMPRISING CENTANAFADINE” (OTSUKA PHARMACEUTICAL CO., LTD., priority 2022, published 2026).

Legend:
[1] = tested on: norepinephrine (NE) reuptake
[2] = tested on: serotonin (5-HT) reuptake
[3] = fold less than against norepinephrine reuptake, background statement

c1ccc2cc([C@]34CNC[C@H]3C4)ccc2c1 [(1R,5S)-1-(naphthalen-2-yl)-3-azabicyclo[3.1.0]hexane]
effectiveness against norepinephrine (NE) reuptake ([1]; compared with DA and 5-HT reuptake, background statement): most effective | inhibition of norepinephrine reuptake ([1]; in words, PL 1 (JP 5184354 B)): can inhibit the reuptake | effectiveness against dopamine (DA) reuptake, fold less (dopamine (DA) reuptake; [3]): 6 fold | inhibition of dopamine reuptake (dopamine (DA) reuptake; in words, PL 1 (JP 5184354 B)): can inhibit the reuptake | effectiveness against serotonin (5-HT) reuptake, fold less [2, 3]: 14 fold | inhibition of serotonin reuptake ([2]; in words, PL 1 (JP 5184354 B)): can inhibit the reuptake
